The results in this text go back to ChEMBL document CHEMBL1126700, “Synthesis and serotonergic activity of 5-(oxadiazolyl)tryptamines: potent agonists for 5-HT1D receptors” (J Med Chem, 1993).

The nature of data set [1]: Partition coefficient (logD7.4). The following applies: octanol/water, pH 7.4.
Data set [2] addresses 5-hydroxytryptamine receptor 1D (Sus scrofa, UniProt P79400). The data set is described as follows: Displacement of radioligand [3H]5-HT binding to 5-hydroxytryptamine 1D receptor in pig caudate membrane. In kind it is cell membranes.
The target of data set [3] is Serotonin 2 (5-HT2) receptor (Rattus norvegicus, UniProt P30994+P08909+P14842). Nature of the data set: isplacement of [3H]DOB from rat cortex homogenate 5-hydroxytryptamine 2 receptor.
In data set [4] the target is T1, Serotonin 3 (5-HT3) receptor (Rattus norvegicus, UniProt P35563+Q9JJ16).
T1 sequence (P35563 whole entry): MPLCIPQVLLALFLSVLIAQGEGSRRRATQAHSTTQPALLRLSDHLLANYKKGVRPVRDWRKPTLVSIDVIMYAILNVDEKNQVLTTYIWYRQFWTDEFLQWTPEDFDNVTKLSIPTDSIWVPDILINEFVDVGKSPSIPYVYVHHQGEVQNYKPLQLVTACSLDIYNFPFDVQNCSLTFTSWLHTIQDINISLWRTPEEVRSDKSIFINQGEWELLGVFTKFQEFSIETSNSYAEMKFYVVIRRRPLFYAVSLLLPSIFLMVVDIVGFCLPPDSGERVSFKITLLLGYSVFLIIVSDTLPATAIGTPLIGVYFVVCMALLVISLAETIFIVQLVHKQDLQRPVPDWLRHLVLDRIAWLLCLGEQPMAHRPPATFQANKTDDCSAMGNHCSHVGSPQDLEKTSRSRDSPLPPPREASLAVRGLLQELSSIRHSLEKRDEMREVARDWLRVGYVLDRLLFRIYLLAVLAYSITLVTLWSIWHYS
T1 sequence (Q9JJ16 whole entry): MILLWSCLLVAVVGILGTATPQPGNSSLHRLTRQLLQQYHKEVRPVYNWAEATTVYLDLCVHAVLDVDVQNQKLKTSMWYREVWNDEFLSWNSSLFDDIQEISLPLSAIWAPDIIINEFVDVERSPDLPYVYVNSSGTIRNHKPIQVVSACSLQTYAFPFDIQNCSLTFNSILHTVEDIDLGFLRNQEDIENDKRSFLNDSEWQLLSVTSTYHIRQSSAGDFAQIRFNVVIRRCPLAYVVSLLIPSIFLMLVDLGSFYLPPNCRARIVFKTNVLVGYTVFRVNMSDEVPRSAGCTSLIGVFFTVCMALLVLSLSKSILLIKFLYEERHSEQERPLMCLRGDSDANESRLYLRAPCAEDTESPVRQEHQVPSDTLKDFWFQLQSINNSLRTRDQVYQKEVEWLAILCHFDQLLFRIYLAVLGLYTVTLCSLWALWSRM
Nature of the data set: Displacement of [3H]-Q-ICS 205-930 from rat cortex homogenate 5-hydroxytryptamine 3 receptor. (Displacement assays read how much labelled ligand stays bound in the presence of the test substance.)

The species named for data set [5] is Oryctolagus cuniculus. Nature of the data set: Relative maximum is the relative efficacy for serotonergic activity on rabbit saphenous vein with respect to 1 uM 5-HT. In kind it is functional.
The species entered for data set [6] is Oryctolagus cuniculus. Nature of the data set: Serotonergic activity was assessed in vitro on the New Zealand white rabbit saphenous vein preparation. In kind it is functional.
The species named for data set [7] is Oryctolagus cuniculus. The data set is described as follows: Relative maximum is the relative efficacy with respect to 1 uM 5-HT. It counts as functional.

One may read the logD as the decadic logarithm of the distribution of all forms, ionised or not, between an organic phase and buffer at a given pH. Lower therefore signals a more hydrophilic compound. One may read the IC50 as the midpoint of a concentration-inhibition curve. The pIC50 is −log10 of the IC50, conventionally taken in molar units. As a reminder, the EC50 is the concentration needed to bring the measured effect to its halfway point. Read a low EC50 as greater potency.

5-hydroxytryptamine receptor 1D, sequence (P79400 whole entry): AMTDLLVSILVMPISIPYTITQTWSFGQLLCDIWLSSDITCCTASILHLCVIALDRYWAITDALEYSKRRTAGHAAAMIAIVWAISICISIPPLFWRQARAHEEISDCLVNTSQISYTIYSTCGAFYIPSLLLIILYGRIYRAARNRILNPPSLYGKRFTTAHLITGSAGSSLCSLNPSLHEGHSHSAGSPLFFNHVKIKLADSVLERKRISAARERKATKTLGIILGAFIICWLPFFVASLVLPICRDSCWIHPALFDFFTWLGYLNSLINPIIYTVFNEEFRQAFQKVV

Compound `CNS(=O)(=O)Cc1ccc2[nH]cc(CCN(C)C)c2c1` showed a logD in data set [1] of -1.17.
As for `NCCc1c[nH]c2ccc(C(N)=O)cc12`, in data set [2], the IC50 is 3.98 nM.
As for `CN(C)CCc1c[nH]c2ccc(-c3nc(Cc4ccc(NS(C)(=O)=O)cc4)no3)cc12`, the IC50 in data set [2] is 1.26 nM. The same compound had a logD in data set [1] of 1.25.
In turn, `NCCc1c[nH]c2ccc(-c3nc(Cc4ccccc4)no3)cc12` had a pIC50 in data set [3] of 5.9. In addition, the figures for the IC50 in data set [2] and in data set [4] were 6.31 nM and over 10000 nM, respectively. Further, the logD in data set [1] was 1.32.
With `CNC(=O)c1ccc(-c2noc(-c3ccc4[nH]cc(CCN)c4c3)n2)cc1`, the IC50 in data set [2] was 0.794 nM.
Take `Cc1noc(CCCc2ccc3[nH]cc(CCN)c3c2)n1`: the IC50 in data set [2] is 5.01 nM.
On to `CCc1noc(-c2ccc3[nH]cc(CCN)c3c2)n1`, for which, in data set [2], the IC50 was 12.6 nM. Besides, the logD in data set [1] turned out to be 0.13.
In data set [3], `CC(=O)Nc1ccc(Cc2noc(-c3ccc4[nH]cc(CCN)c4c3)n2)cc1` showed a pIC50 of 6.4. Besides, the IC50 in data set [2] is 0.501 nM; in data set [4], over 10000 nM. Further, in data set [1], the logD was found to be 0.48. This compound also registered a Relative maximum in the data set filed under Oryctolagus cuniculus [5] of 1. This compound gave an EC50 in the data set listed under Oryctolagus cuniculus [6] of 12.6 nM.
`NCCc1c[nH]c2ccc(-c3nc(N)no3)cc12` showed an IC50 in data set [2] of 50.1 nM. Moreover, the logD in data set [1] is -0.72.
The corresponding values for `NCCc1c[nH]c2ccc(Cc3nc(Cc4ccccc4)no3)cc12` are 31.6 nM and 0.42.
The corresponding values for `COc1ccccc1Cc1noc(-c2ccc3[nH]cc(CCN)c3c2)n1` are 15.8 nM and 1.38.
In data set [2], `NCCc1c[nH]c2ccc(Cc3nc(-c4ccccc4)no3)cc12` gave an IC50 of 20 nM.
In data set [3], `CN(C)CCc1c[nH]c2ccc(CCc3nc(N)no3)cc12` gave a pIC50 of 6.7. Besides, the results for the IC50 in data set [2] and in data set [4] were 12.6 nM and 6310 nM, respectively. In addition, the EC50 in the data set listed under Oryctolagus cuniculus [6] was 200 nM.
For `CN(C)CCc1c[nH]c2ccc(-c3nc(Cc4ccccc4)no3)cc12`, the IC50 in data set [2] is 6.31 nM.
`CS(=O)(=O)Nc1ccc(Cc2noc(Cc3ccc4[nH]cc(CCN)c4c3)n2)cc1` had a 50% inhibitory concentration (IC50) in data set [2] of 3.16 nM. Besides, the logD in data set [1] was -0.54.
The corresponding values for `CN(C)CCc1c[nH]c2ccc(-c3nc(N)no3)cc12` are 79.4 nM and 0.2.
`Cc1noc(-c2ccc3[nH]cc(CCN)c3c2)n1` returned a pIC50 in data set [3] of 5.8. In addition, the IC50 was 10 nM in data set [2] and over 10000 nM in data set [4]. The same compound registered a logD in data set [1] of -0.37. The compound further had a Relative maximum in the data set filed under Oryctolagus cuniculus [5] of 1. This compound gave an EC50 in the data set listed under Oryctolagus cuniculus [6] of 251 nM.
On to `CC(=O)NCc1noc(-c2ccc3[nH]cc(CCN)c3c2)n1`, for which the IC50 in data set [2] was 20 nM.
`NCCc1c[nH]c2ccc(Cc3nc(N)no3)cc12` showed a pIC50 in data set [3] of 6.1. The IC50 was 20 nM in data set [2] and over 10000 nM in data set [4]. In the data set listed under Oryctolagus cuniculus [6], this compound gave an EC50 of 158 nM.
With `CN(C)CCc1c[nH]c2ccc(Cc3nc(N)ns3)cc12`, the pIC50 in data set [3] is recorded as 6.9. Also, the IC50 was 2 nM in data set [2] and 2400 nM in data set [4]. This compound showed a Relative maximum in the data set filed under Oryctolagus cuniculus [5] of 1.1.
As for `NCCc1c[nH]c2ccc(CCCc3nc(Cc4ccccc4)no3)cc12`, in data set [2], the IC50 is 1.58 nM.
The compound `CNC(=O)c1ccc(-c2noc(Cc3ccc4[nH]cc(CCN(C)C)c4c3)n2)cc1` gave an IC50 in data set [2] of 2 nM. Besides, in data set [1], the logD worked out at 1.45.
On to `NCCc1c[nH]c2ccc(-c3nc(C4CC4)no3)cc12`, for which, in data set [3], the pIC50 is listed as 5.6. The figures for the IC50 in data set [2] and in data set [4] were 7.94 nM and over 10000 nM, respectively. In data set [1], this compound yielded a logD of 0.6.
In data set [2], `CN(C)CCc1c[nH]c2ccc(CCCc3nc(Cc4ccccc4)no3)cc12` had an IC50 of 12.6 nM.
Same read-out and setting: with `CN(C)CCc1c[nH]c2ccc(Cc3nc(-c4ccc(NS(C)(=O)=O)cc4)no3)cc12` the figure was 10 nM.
The same measure, in the same setting: to `Cc1cnc(-c2ccc3[nH]cc(CCN(C)C)c3c2)o1` belongs 7.94 nM.
Consider `NCCc1c[nH]c2ccc(CCc3nc(N)no3)cc12`, for which the IC50 in data set [2] was 10 nM. This compound also came in with a logD in data set [1] of -1.51.
The corresponding values for `CC(=O)Nc1ccc(Cc2noc(Cc3ccc4[nH]cc(CCN)c4c3)n2)cc1` are 2.51 nM and -0.36.
In data set [3], `CN(C)CCc1c[nH]c2ccc(Cc3nc(N)no3)cc12` had a pIC50 of 6.4. Further, the IC50 is 25.1 nM in data set [2] and 2510 nM in data set [4].
The corresponding values for `Cc1noc(Cc2ccc3[nH]cc(CCN(C)C)c3c2)n1` are 5.6, 50.1 nM and 3980 nM.
The matching figures for `COc1ccc(Cc2noc(-c3ccc4[nH]cc(CCN)c4c3)n2)cc1`: 6, 0.794 nM and over 10000 nM.
Regarding `CNS(=O)(=O)c1ccc(Cc2noc(-c3ccc4[nH]cc(CCN)c4c3)n2)cc1`, the IC50 in data set [2] was 0.251 nM. The compound further gave a logD in data set [1] of 0.25. In the data set listed under Oryctolagus cuniculus [5], the Relative maximum turned out to be 0.9. Moreover, in the data set listed under Oryctolagus cuniculus [6], a half-maximal effect (EC50) was put at 12.6 nM.
In data set [3], `NCCc1c[nH]c2ccc(CCc3nc(Cc4ccccc4)no3)cc12` yielded a pIC50 of 6.6. Also, the values for the IC50 in data set [2] and in data set [4] were 5.01 nM and over 10000 nM, respectively.
Take `Cc1noc(Cc2ccc3[nH]cc(CCN)c3c2)n1`: the pIC50 in data set [3] is 5.5. Moreover, the IC50 in data set [2] was 31.6 nM; in data set [4], over 10000 nM. The same compound displayed a logD in data set [1] of -1.7.
`CN(C)CCc1c[nH]c2ccc(Cc3nc(Cc4ccc(NS(C)(=O)=O)cc4)no3)cc12` gave an IC50 in data set [2] of 31.6 nM. This compound also gave a logD in data set [1] of 0.5.
Compound `COc1cccc(Cc2noc(-c3ccc4[nH]cc(CCN)c4c3)n2)c1` had an IC50 in data set [2] of 1.26 nM.
On the same count and under the same terms, to `NCCc1c[nH]c2ccc(-c3nc(-c4ccccc4)no3)cc12` belongs 79.4 nM.
On the same count and under the same terms, to `CN(C)CCc1c[nH]c2ccc(CCc3nc(Cc4ccccc4)no3)cc12` belongs 12.6 nM.
`CS(=O)(=O)Nc1ccc(Cc2noc(-c3ccc4[nH]cc(CCN)c4c3)n2)cc1` [L-694247] came in with a pIC50 in data set [3] of 6.5. The IC50 in data set [2] is 0.316 nM; in data set [4], over 10000 nM. In addition, the logD in data set [1] was found to be 0.25. In the data set filed under Oryctolagus cuniculus [5], this compound yielded a Relative maximum of 1. Further, a half-maximal effect in the data set listed under Oryctolagus cuniculus [6] (EC50) was put at 15.8 nM.
`NCCc1c[nH]c2ccc(O)cc12` [SEROTONIN] gave an IC50 in data set [2] of 10 nM. In the data set listed under Oryctolagus cuniculus [7], this compound came in with a Relative maximum of 1.
